Experimental data reported in patent US9365588B2, “Benzoxazines as modulators of ion channels” (Vertex Pharmaceuticals Incorporated, priority 2011, dated 2016).

Biological target: human NaV 1.7 (Homo sapiens, UniProt Q15858)
Assay: E-VIPR optical membrane potential assay with electrical stimulation
Type: cell-based
Details: sodium channel inhibition; read-out: Binned Activity Data (IC50)
How it was run: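 Membrane-potential read-out: background-subtracted 460 nm/580 nm ratio during a 9 s current-controlled stimulus, 400 Hz scan. Before stimulation, NaV1.7-HEK cells carried coumarin/oxonol dye and compound (final DMSO 0.625%) for 20–35 min at room temperature; tetracaine 125 μM served as positive control.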

Sequence of human NaV 1.7 (Q15858 whole entry): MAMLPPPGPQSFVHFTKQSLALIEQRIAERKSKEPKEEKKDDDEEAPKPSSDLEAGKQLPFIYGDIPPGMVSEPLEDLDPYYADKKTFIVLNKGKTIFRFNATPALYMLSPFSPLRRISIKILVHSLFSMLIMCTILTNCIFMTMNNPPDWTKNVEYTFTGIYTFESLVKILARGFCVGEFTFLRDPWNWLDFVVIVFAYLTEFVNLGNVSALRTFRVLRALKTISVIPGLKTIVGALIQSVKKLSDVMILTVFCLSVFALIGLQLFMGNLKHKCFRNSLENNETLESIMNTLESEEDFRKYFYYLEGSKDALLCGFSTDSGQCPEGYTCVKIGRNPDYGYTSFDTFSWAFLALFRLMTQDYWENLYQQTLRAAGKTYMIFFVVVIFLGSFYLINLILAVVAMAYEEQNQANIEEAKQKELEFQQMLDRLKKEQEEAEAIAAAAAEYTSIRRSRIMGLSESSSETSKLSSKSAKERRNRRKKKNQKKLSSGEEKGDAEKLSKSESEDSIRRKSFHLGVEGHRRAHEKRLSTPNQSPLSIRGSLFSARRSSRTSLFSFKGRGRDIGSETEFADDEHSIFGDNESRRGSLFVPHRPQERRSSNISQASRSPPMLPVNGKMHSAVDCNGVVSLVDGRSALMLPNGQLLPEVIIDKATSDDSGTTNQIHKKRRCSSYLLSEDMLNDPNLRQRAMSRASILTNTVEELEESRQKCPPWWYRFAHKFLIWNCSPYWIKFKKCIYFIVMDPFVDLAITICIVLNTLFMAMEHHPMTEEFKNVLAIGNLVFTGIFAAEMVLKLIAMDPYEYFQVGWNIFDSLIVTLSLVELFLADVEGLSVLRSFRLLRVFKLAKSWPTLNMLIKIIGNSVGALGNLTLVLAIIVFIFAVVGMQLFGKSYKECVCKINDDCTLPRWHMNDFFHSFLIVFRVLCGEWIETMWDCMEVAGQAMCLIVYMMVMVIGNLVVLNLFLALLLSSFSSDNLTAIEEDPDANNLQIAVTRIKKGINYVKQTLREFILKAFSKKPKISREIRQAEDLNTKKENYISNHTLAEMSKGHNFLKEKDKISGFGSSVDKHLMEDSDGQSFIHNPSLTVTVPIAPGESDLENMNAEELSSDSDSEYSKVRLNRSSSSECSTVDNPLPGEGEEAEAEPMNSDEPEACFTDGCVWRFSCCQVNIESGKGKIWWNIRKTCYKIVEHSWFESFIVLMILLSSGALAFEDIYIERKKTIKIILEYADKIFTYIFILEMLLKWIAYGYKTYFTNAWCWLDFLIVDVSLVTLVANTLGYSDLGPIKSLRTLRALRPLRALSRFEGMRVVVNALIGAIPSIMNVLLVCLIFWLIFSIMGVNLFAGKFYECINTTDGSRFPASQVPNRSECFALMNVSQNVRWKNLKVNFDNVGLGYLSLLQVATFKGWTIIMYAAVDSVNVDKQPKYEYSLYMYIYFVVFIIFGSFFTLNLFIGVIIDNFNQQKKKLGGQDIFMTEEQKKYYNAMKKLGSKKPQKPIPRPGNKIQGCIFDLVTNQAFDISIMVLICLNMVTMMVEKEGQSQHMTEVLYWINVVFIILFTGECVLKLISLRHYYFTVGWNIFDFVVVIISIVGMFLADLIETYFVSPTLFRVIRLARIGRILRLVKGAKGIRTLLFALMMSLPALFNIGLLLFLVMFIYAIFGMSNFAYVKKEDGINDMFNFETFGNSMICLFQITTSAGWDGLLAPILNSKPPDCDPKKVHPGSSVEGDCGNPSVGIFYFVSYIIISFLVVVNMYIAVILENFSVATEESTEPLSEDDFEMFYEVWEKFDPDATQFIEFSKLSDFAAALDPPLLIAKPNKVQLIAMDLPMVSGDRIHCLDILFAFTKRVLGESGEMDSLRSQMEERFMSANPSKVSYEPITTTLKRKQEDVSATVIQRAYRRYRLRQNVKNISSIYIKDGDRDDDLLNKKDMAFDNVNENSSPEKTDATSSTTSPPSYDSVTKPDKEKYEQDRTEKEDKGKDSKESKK

| IC50 [nM] | Structure (SMILES) |
| --- | --- |
| ≤ 2000 | Cn1ncc2c1-c1ccc(F)cc1OC21CCN(C(=O)c2ccccc2OC(F)F)CC1 [Compound 258] |
| ≤ 2000 | COc1cccc(C)c1C(=O)N1CCC2(CC1)Oc1ccccc1-c1c2cnn1C [Compound 259] |
| 2000 to 5000 | CC(C)S(=O)(=O)c1ccc(C(=O)N2CCC3(CC2)Oc2ccccc2-n2c(C(F)F)ccc23)cc1 [Compound 260] |
| ≤ 2000 | Cc1nc(C(=O)N2CCC3(CC2)Oc2ccccc2-c2nn(C)cc23)ccc1OC(C)C [Compound 262] |
| ≤ 2000 | O=C(c1ccc(O[C@H]2CCOC2)c(C(F)(F)F)c1)N1CCC2(CC1)Oc1ccccc1-n1cccc12 [Compound 263] |
| ≤ 2000 | CC(C)(C)c1ccc(C(=O)N2CCC3(CC2)Oc2ccccc2-n2c3ccc2S(C)(=O)=O)cc1 [Compound 265] |
| ≤ 2000 | CCn1ncc2c1-c1cc(F)ccc1OC21CCN(C(=O)c2ccc(OC(C)C)c(C)c2)CC1 [Compound 267] |
| ≤ 2000 | CCCOc1ccc(C(=O)N2CCC3(CC2)Oc2cc(Cl)ccc2-n2cccc23)cc1C(F)(F)F [Compound 269] |
| ≤ 2000 | O=C(c1ccc(S(=O)(=O)C2CC2)cc1)N1CCC2(CC1)Oc1ccccc1-n1c(C(F)(F)F)ccc12 [Compound 270] |
| > 5000 | Cc1cc(C(=O)N2CCC3(CC2)Oc2cccnc2-c2c3cnn2C)ccc1OC(C)C [Compound 271] |
| > 5000 | N#Cc1cccc(C(=O)N2CCC3(CC2)Oc2cc(Cl)ccc2-n2cccc23)c1 [Compound 272] |
| ≤ 2000 | Cc1cc(C(=O)N2CCC3(CC2)Oc2ccccc2-c2c3c(C)nn2C)ccc1OC(C)C [Compound 274] |
| ≤ 2000 | CC(C)Oc1ccc(C(=O)N2CCC3(CC2)Oc2ccccc2-c2nn(C)cc23)cc1CO [Compound 276] |
| ≤ 2000 | O=C(c1cc(Cl)cc(Cl)c1)N1CCC2(CC1)Oc1cc(Cl)ccc1-n1cccc12 [Compound 277] |
| ≤ 2000 | COc1cc(C(=O)N2CCC3(CC2)Oc2ccccc2-c2nn(C)cc23)ccc1OC(C)C [Compound 281] |
| ≤ 2000 | CC(C)Oc1ccc(C(=O)N2CCC3(CC2)Oc2ccccc2-n2c3ccc2S(C)(=O)=O)cc1F [Compound 282] |
| ≤ 2000 | Cn1ncc2c1-c1cc(Cl)ccc1OC21CCN(C(=O)c2ccccc2OC(F)F)CC1 [Compound 283] |
| ≤ 2000 | Cn1cc2c(n1)-c1ccccc1OC21CCN(C(=O)c2ccc(OC(F)F)cc2)CC1 [Compound 284] |
| ≤ 2000 | N#Cc1ccc2n1-c1ccccc1OC21CCN(C(=O)c2ccccc2OC(F)F)CC1 [Compound 285] |
| ≤ 2000 | CC(C)Oc1ccc(C(=O)N2CCC3(CC2)Oc2ccccc2-n2c([S+](C)[O-])ccc23)cc1CO (stereo not shown) [Compound 286] |
| ≤ 2000 | COc1cc(C(=O)N2CCC3(CC2)Oc2cc(Cl)ccc2-n2cccc23)ccc1C1(O)COC1 [Compound 287] |
| ≤ 2000 | COc1ccc2c(c1)OC1(CCN(C(=O)c3ccc(OC(C)C)c(C)c3)CC1)c1cnn(C)c1-2 [Compound 289] |
| ≤ 2000 | Cn1ncc2c1-c1ccccc1OC21CCN(C(=O)c2cccc3c2OCC3)CC1 [Compound 290] |
| ≤ 2000 | COc1cc(C(=O)N2CCC3(CC2)Oc2cc(Cl)ccc2-n2cccc23)ccc1OCCOC(F)(F)F [Compound 291] |

More lines, now with the values behind:

| Structure (SMILES) | IC50 [nM] |
| --- | --- |
| Cn1ncc2c1-c1ccccc1OC21CCN(C(=O)c2cccc(F)c2OC(F)F)CC1 [Compound 194] | ≤ 2000 |
| CS(=O)(=O)c1ccc2n1-c1ccccc1OC21CCN(C(=O)c2ccccc2OC(F)F)CC1 [Compound 195] | ≤ 2000 |
| COc1cc(C(=O)N2CCC3(CC2)Oc2cc(F)ccc2-n2cccc23)ccc1OC1CCC(O)C1 (stereo not shown) [Compound 196] | ≤ 2000 |
| N#Cc1ccc2n1-c1ccccc1OC21CCN(C(=O)c2ccc(OCCO)cc2)CC1 [Compound 197] | ≤ 2000 |
| CCCCc1nc2cc(C(=O)N3CCC4(CC3)Oc3ccccc3-n3c(C(F)(F)F)ccc34)ccc2o1 [Compound 198] | ≤ 2000 |
| COc1cc(C(=O)N2CCC3(CC2)Oc2cc(Cl)ccc2-n2cccc23)ccc1OCC(C)(C)OC [Compound 199] | ≤ 2000 |
| CCc1ccc(C(=O)N2CCC3(CC2)Oc2cc(F)ccc2-n2cccc23)cc1OC [Compound 200] | ≤ 2000 |
| Cc1cc(C(=O)N2CCC3(CC2)Oc2ccccc2-c2c3cnn2C)c(C)cc1OC(C)C [Compound 202] | ≤ 2000 |
| COc1cc(C(=O)N2CCC3(CC2)Oc2ccccc2-n2cccc23)ccc1OC[C@@H](C)OC [Compound 203] | ≤ 2000 |
| COc1ccc(C(=O)N2CCC3(CC2)Oc2ccccc2-c2c3cnn2C)c(OC(C)C)c1 [Compound 205] | ≤ 2000 |
| COc1cc(C(=O)N2CCC3(CC2)Oc2ccccc2-n2c(C#N)ccc23)ccc1O [Compound 206] | ≤ 2000 |
| CC(C)(C)S(=O)(=O)c1ccsc1C(=O)N1CCC2(CC1)Oc1ccccc1-n1c(C(F)(F)F)ccc12 [Compound 207] | ≤ 2000 |
| CC(C)Oc1ccc(C(=O)N2CCC3(CC2)Oc2cc(C#N)ccc2-n2cccc23)cc1 [Compound 208] | ≤ 2000 |
| O=C(c1ccc(S(=O)(=O)NC2CC2)cc1)N1CCC2(CC1)Oc1ccccc1-n1cccc12 [Compound 209] | ≤ 2000 |
| COCCOc1ccc(C(=O)N2CCC3(CC2)Oc2cc(Cl)ccc2-n2cccc23)cc1C [Compound 211] | ≤ 2000 |
| CCOc1ccccc1C(=O)N1CCC2(CC1)Oc1ccccc1-c1c2cnn1C [Compound 212] | ≤ 2000 |
| Cc1cc(C(=O)N2CCC3(CC2)Oc2ccc(Cl)cc2-c2c3cnn2C)ccc1OC(C)C [Compound 213] | ≤ 2000 |
| O=C(c1cc2occc2[nH]1)N1CCC2(CC1)Oc1ccccc1-n1c(C(F)(F)F)ccc12 [Compound 214] | > 5000 |
| Cc1cc(C(=O)N2CCC3(CC2)Oc2cc(F)ccc2-n2cccc23)ccc1C#N [Compound 215] | ≤ 2000 |
| COc1cc(C(=O)N2CCC3(CC2)Oc2cc(Cl)ccc2-n2cccc23)ccc1C(C)(C)O [Compound 216] | ≤ 2000 |
| Cc1ccccc1C(=O)N1CCC2(CC1)Oc1ccccc1-c1c2cnn1C [Compound 217] | 2000 to 5000 |
| Cn1ncc2c1-c1ccccc1OC21CCN(C(=O)c2cn(C)c3ccccc23)CC1 [Compound 218] | ≤ 2000 |
| COCc1ccccc1C(=O)N1CCC2(CC1)Oc1ccccc1-c1c2cnn1C [Compound 219] | ≤ 2000 |
| CC(C)(C)c1ccc(C(=O)N2CCC3(CC2)Oc2cc(Cl)ccc2-n2cccc23)cc1C#N [Compound 220] | ≤ 2000 |
| Cc1cc(C)cc(C(=O)N2CCC3(CC2)Oc2cc(Cl)ccc2-n2cccc23)c1 [Compound 222] | ≤ 2000 |
| COCCOc1ccc(C(=O)N2CCC3(CC2)Oc2ccccc2-n2c(C(F)(F)F)ccc23)cc1OC [Compound 223] | ≤ 2000 |

| Structure (SMILES) | IC50 [nM] |
| --- | --- |
| Cc1nc2cccc(C(=O)N3CCC4(CC3)Oc3ccccc3-c3c4cnn3C)c2o1 [Compound 224] | ≤ 2000 |
| COc1ccc(C(=O)N2CCC3(CC2)Oc2ccccc2-c2c3cnn2C)cc1Cl [Compound 227] | 2000 to 5000 |
| COc1cc(C(=O)N2CCC3(CC2)Oc2cc(F)ccc2-n2cccc23)ccc1OC[C@H]1COC(C)(C)O1 [Compound 228] | ≤ 2000 |
| Cn1cc2c(n1)-c1ccccc1OC21CCN(C(=O)c2ccc(C(C)(C)O)cc2)CC1 [Compound 230] | ≤ 2000 |
| C[C@](O)(CO)c1ccc(C(=O)N2CCC3(CC2)Oc2ccccc2-n2c(C(F)(F)F)ccc23)cc1 [Compound 231] | > 5000 |
| CC(C)N(C)S(=O)(=O)c1ccc(C(=O)N2CCC3(CC2)Oc2ccccc2-c2c3cnn2C)cc1 [Compound 233] | 2000 to 5000 |
| CC(=O)c1ccc2n1-c1ccccc1OC21CCN(C(=O)c2ccc(S(=O)(=O)NC3CC3)cc2)CC1 [Compound 235] | ≤ 2000 |
| COc1ccc(C)cc1C(=O)N1CCC2(CC1)Oc1ccccc1-c1c2cnn1C [Compound 236] | > 5000 |
| COC[C@@H](C)Oc1ccc(C(=O)N2CCC3(CC2)Oc2ccccc2-n2cccc23)cc1C(F)(F)F [Compound 237] | ≤ 2000 |
| COCCCOc1ccc(C(=O)N2CCC3(CC2)Oc2cc(Cl)ccc2-n2cccc23)cc1C(F)(F)F [Compound 238] | ≤ 2000 |
| CCc1ccc(C(=O)N2CCC3(CC2)Oc2ccccc2-n2cccc23)cc1OC [Compound 239] | ≤ 2000 |
| COc1cc(OC)c(C(=O)N2CCC3(CC2)Oc2ccccc2-c2nn(C)cc23)cc1OC [Compound 240] | 2000 to 5000 |
| O=C(c1ccccc1)N1CCC2(CC1)Oc1ccccc1-n1cccc12 [Compound 241] | > 5000 |
| Cn1ncc2c1-c1ccccc1OC21CCN(C(=O)c2cccc(F)c2F)CC1 [Compound 242] | > 5000 |
| Cn1ncc2c1-c1ccccc1OC21CCN(C(=O)c2ccc(S(=O)(=O)NC3CC3)cc2)CC1 [Compound 243] | ≤ 2000 |
| CNC(=O)c1ccc2n1-c1ccc(Cl)cc1OC21CCN(C(=O)c2ccc(OC(C)C)c(C)c2)CC1 [Compound 245] | 2000 to 5000 |
| CC(C)Oc1ccc(C(=O)N2CCC3(CC2)Oc2ccccc2-c2nn(C)cc23)c(F)c1 [Compound 246] | ≤ 2000 |
| COc1cc(C(=O)N2CCC3(CC2)Oc2ccccc2-n2cccc23)ccc1OC(C)C [Compound 247] | ≤ 2000 |
| COc1ccc(C(=O)N2CCC3(CC2)Oc2cc(F)ccc2-n2cccc23)cc1C(F)(F)F [Compound 249] | ≤ 2000 |
| Cn1ccc(C(=O)N2CCC3(CC2)Oc2cc(Cl)ccc2-n2c(C(F)(F)F)ccc23)cc1=O [Compound 250] | 2000 to 5000 |
| CCc1ccc(C(=O)N2CCC3(CC2)Oc2ccccc2-c2c3cnn2C)cc1OC [Compound 251] | ≤ 2000 |
| Cc1c(C(=O)N2CCC3(CC2)Oc2ccccc2-c2c3cnn2C)cnn1-c1ccccc1 [Compound 252] | 2000 to 5000 |
| CCn1ncc2c1-c1ccccc1OC21CCN(C(=O)c2ccc(S(=O)(=O)C(C)C)cc2)CC1 [Compound 253] | ≤ 2000 |
| Cc1cc(C(=O)N2CCC3(CC2)Oc2ncccc2-n2nccc23)ccc1OC(C)C [Compound 255] | ≤ 2000 |
| COc1cc(C(=O)N2CCC3(CC2)Oc2ccccc2-c2c3cnn2C)ccc1OC(C)C [Compound 256] | ≤ 2000 |
| CCc1ccc(C(=O)N2CCC3(CC2)Oc2ccccc2-c2sc(C)nc23)cc1OC [Compound 257] | ≤ 2000 |
